# According to patent US20210071180A1, “MICRORNA 584-5P COMPOSITIONS AND METHODS FOR TREATING CANCER” (BOARD OF REGENTS, THE UNIVERSY OF TEXAS SYSTEM, priority 2018, published 2021):
# Assays:
# [1] = test system: D458Med cells; test: miRNA mimic library screen, CellTiter-Glo cell viability; assay type: cell-based; conditions: D458Med cells, 72 hours
# Procedure: To identify miRNAs that may sensitize VCR response in MB, a high-throughput screening platform was combined with a library of 1,902 chemically synthesized human miRNA mimics. The miRNAs are arrayed in a one-miRNA-one-well format in 96-well microtiter plates. Reverse transfection of Group 3/c-Myc-amplified D458Med cells was performed in triplicate in the presence and absence of a sublethal dose of VCR, which was optimized in four MB cell lines before the screen (FIG. 2A). Cells were subjected to VCR at an IC20 lethal concentration for 72 hours after 48 hours of transfection, and cell viability was measured (FIG. 1A). Candidate miRNAs were prioritized for validation by functional and interaction assays using standard Student t-tests (with pooled variance), false discovery rate (Q=0.5%), and by using the magnitude of response (lowest 2.5 percentile of the distribution of the μVCR/μControl ratios).
# miRNA mimic library screen. The primary screen was conducted using MI00200 MISSION microRNA Mimic v.17, in which miRNA mimics were arrayed in a one-miRNA-one-well format in 96-well microtiter plates. […] Cell viability was assessed using CellTiter-Glo (Promega, Madison, Wis., USA) according to the manufacturer's protocol. ath-miR-416 or cel-miR-243 was added as a negative control, whereas siRNA against PLK-1 was used as a positive control in each plate. […]
# [2] = test system: melanoma cells; conditions: cited from earlier work
Structure (SMILES),20% inhibitory concentration [1],RAD51 expression [2],homologous recombination (HR) [2]
"CC[C@]1(O)C[C@H]2CN(CCc3c([nH]c4ccccc34)[C@@](C(=O)OC)(c3cc4c(cc3OC)N(C=O)[C@H]3[C@@](O)(C(=O)OC)[C@H](OC(C)=O)[C@]5(CC)C=CCN6CC[C@]43[C@@H]65)C2)C1 [VCR, vincristine, reference compound]",2 nM,,
Nc1ccccc1NC(=O)c1ccc(CNC(=O)OCc2cccnc2)cc1 [MS-275],,decreases RAD51 expression,blocks HR
